Patent publication US20240158446A1, “CYCLIC COMPOUND HAVING SELECTIVE INHIBITORY ACTION ON KRAS OVER HRAS AND NRAS” (CHUGAI SEIYAKU KABUSHIKI KAISHA, priority 2021, published 2024)
pKd: −log10 of the molar value. Read-outs that look alike come from different tables or passages of the source. *1 amine or outer side, *2 acyl side, *3 side chain or, on linkers, in order; H or OH if unused. Where a SMILES comes first, the peptide text is derived from it. Bridges are numbered along the chain shown (N, C = ends). [ ]: non-standard residue; d: D form. The star is where a group is joined. hPhe(3-Cl-4-CF3) = N[C@@H](CCc1ccc(C(F)(F)F)c(Cl)c1)C(=O)O; X32 = COCCN([C@@H](Cc1ccc(C(F)(F)F)cc1)C(=O)[*:2])[*:1]; NPrPhe(4-CF3) = CCCN[C@@H](Cc1ccc(C(F)(F)F)cc1)C(=O)O; NPrPhe(4-Me) = CCCN[C@@H](Cc1ccc(C)cc1)C(=O)O; NMeAbu(4,4,4-F3) = CN[C@@H](CC(F)(F)F)C(=O)O; NMeGly(cPent) = CN[C@H](C(=O)O)C1CCCC1; Pro(4,4-F2) = O=C(O)[C@@H]1CC(F)(F)CN1; Aze(3S-Me) = C[C@H]1CN[C@@H]1C(=O)O; Hyp = O=C(O)[C@@H]1C[C@@H](O)CN1; Gly(N-propargyl) = C#CCNCC(=O)O; NMeD = CN[C@@H](CC(=O)O)C(=O)O; NMeL = CN[C@@H](CC(C)C)C(=O)O; Morpholide = C1CN(*)CCO1; NMeA = CN[C@@H](C)C(=O)O; Ac5c = NC1(C(=O)O)CCCC1; Aze = O=C(O)[C@@H]1CCN1; Ac4c = NC1(C(=O)O)CCC1; Sar = CNCC(=O)O

Experiments:
[1] = target: GDP-bound KRAS wild-type protein (Homo sapiens, UniProt P01116); assay: Binding to KRAS by surface plasmon resonance (SPR), Single Cycle Kinetics; details: GDP-bound KRAS wild-type protein, read-out: KRAS KD
[2] = target: GDP-bound NRAS wild-type protein (Homo sapiens, UniProt P01111); assay: Binding to NRAS by surface plasmon resonance (SPR), Single Cycle Kinetics; details: for NRAS/KRAS (ratio of KD value for NRAS to KD value for KRAS) / NRAS/KRAS (ratio of KD value with respect to NRAS to KD value with respect to KRAS): SPR, GDP-bound NRAS wild-type protein vs GDP-bound KRAS wild-type protein; for NRAS/KRAS (ratio of KD value with respect to GDP-bound NRAS wild-type protein to KD value with respect to KRAS): SPR KD ratio NRAS/KRAS, class symbols
[3] = target: GDP-bound HRAS wild-type protein (Homo sapiens, UniProt P01112); assay: Binding to HRAS by surface plasmon resonance (SPR), Single Cycle Kinetics; details: for HRAS/KRAS (ratio of KD value for HRAS to KD value for KRAS) / HRAS/KRAS (ratio of KD value with respect to HRAS to KD value with respect to KRAS): SPR, GDP-bound HRAS wild-type protein vs GDP-bound KRAS wild-type protein; for HRAS/KRAS (ratio of KD value with respect to GDP-bound HRAS wild-type protein to KD value with respect to KRAS): SPR KD ratio HRAS/KRAS, class symbols
[4] = SPR Single Cycle Kinetics, 1:1 binding model

Sequence of GDP-bound HRAS wild-type protein (P01112 whole entry): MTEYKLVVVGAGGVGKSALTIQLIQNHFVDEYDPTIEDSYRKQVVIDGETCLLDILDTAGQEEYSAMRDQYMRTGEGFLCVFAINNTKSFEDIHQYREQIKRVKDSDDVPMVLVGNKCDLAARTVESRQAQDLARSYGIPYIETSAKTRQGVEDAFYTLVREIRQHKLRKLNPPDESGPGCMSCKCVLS
Sequence of GDP-bound NRAS wild-type protein (P01111 whole entry): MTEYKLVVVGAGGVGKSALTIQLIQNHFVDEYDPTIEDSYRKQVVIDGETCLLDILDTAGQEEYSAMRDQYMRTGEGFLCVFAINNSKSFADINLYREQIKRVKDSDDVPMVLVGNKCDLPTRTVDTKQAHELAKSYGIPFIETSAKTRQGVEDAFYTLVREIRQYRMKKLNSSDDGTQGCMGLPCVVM
Sequence of GDP-bound KRAS wild-type protein (P01116 whole entry): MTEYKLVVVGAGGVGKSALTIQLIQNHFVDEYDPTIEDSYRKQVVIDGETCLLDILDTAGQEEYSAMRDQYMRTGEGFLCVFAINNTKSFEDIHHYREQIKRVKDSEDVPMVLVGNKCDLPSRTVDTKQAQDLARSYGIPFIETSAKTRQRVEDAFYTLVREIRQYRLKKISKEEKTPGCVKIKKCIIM

Row | pKd [1, 4] | pKd ([1]; SPR, Single Cycle Kinetics) | Compound | NRAS/KRAS (ratio of KD value for NRAS to KD value for KRAS) [2] | HRAS/KRAS (ratio of KD value for HRAS to KD value for KRAS) [3] | NRAS/KRAS (ratio of KD value with respect to GDP-bound NRAS wild-type protein to KD value with respect to KRAS) [2] | HRAS/KRAS (ratio of KD value with respect to GDP-bound HRAS wild-type protein to KD value with respect to KRAS) [3] | NRAS/KRAS (ratio of KD value with respect to NRAS to KD value with respect to KRAS) [2] | HRAS/KRAS (ratio of KD value with respect to HRAS to KD value with respect to KRAS) [3]
1 | 9.70 |  | CC[C@H](C)[C@@H]1NC(=O)[C@H](CC(C)C)N(C)C(=O)C[C@@H](C(=O)N2CCOCC2)N(C)C(=O)[C@H](C2CCCC2)N(C)C(=O)C2(CCCC2)NC(=O)[C@@H]2CCCN2C(=O)[C@H](CCc2ccc(C(F)(F)F)c(Cl)c2)NC(=O)CN(C)C(=O)[C@H](Cc2ccc(C(F)(F)F)cc2)N(CCOC)C(=O)CN(C)C(=O)CN(C)C1=O [PP0132] ([NMeL]I[Sar][Sar][X32][Sar][hPhe(3-Cl-4-CF3)]P[Ac5c][NMeGly(cPent)][NMeD]-Morpholide; lactam N-11) | C (A compound having a KD ratio of 0.1 or more and less than 3 is denoted as C) | C (A compound having a KD ratio of 0.1 or more and less than 3 is denoted as C) |  |  |  | 
2 | 10.28 |  | CCO[C@@H]1C[C@H]2C(=O)NC3(CC(C)(C)C3)C(=O)N(C)[C@@H](C3CCCC3)C(=O)N(C)[C@H](C(=O)N(C)C)CC(=O)N(C)[C@@H](CC(F)(F)F)C(=O)N[C@@H]([C@@H](C)CC)C(=O)N(C)CC(=O)N(C)[C@H]3C/C=C\CCN(C3=O)[C@@H](Cc3ccc(C(F)(F)F)cc3)C(=O)N(C)CC(=O)N[C@@H](CCc3ccc(C(F)(F)F)c(Cl)c3)C(=O)N2C1 [PP2833] |  |  | A (a compound having 10 or more and less than 20 is denoted as A) | A (a compound having 10 or more and less than 20 is denoted as A) |  | 
3 | 10.47 |  | CCCN1C(=O)CN(C)C(=O)CNC(=O)[C@H]([C@@H](C)CC)NC(=O)[C@H](CC(C)C)N(C)C(=O)C[C@@H](C(=O)N(C)C)N(C)C(=O)[C@H](C2CCCC2)N(C)C(=O)C2(CCC2)NC(=O)[C@@H]2CC(F)(F)CN2C(=O)[C@H](CCc2ccc(C(F)(F)F)c(Cl)c2)NC(=O)CN(C)C(=O)[C@@H]1Cc1ccc(C(F)(F)F)cc1 [PP0420] ([NMeL]IG[Sar][NPrPhe(4-CF3)][Sar][hPhe(3-Cl-4-CF3)][Pro(4,4-F2)][Ac4c][NMeGly(cPent)][NMeD]-NMe2; lactam N-11) |  |  |  |  | B (a compound having 3 or more and less than 10 is denoted as B) | C (A compound having a KD ratio of 0.1 or more and less than 3 is denoted as C)
4 | 9.43 |  | C#CCN1CC(=O)N(C)CC(=O)N(CCC)[C@@H](Cc2ccc(C(F)(F)F)cc2)C(=O)N(C)CC(=O)N[C@@H](CCc2ccc(C(F)(F)F)c(Cl)c2)C(=O)N2CCC[C@H]2C(=O)NC2(CCCC2)C(=O)N(C)[C@@H](C2CCCC2)C(=O)N(C)[C@H](C(=O)N2CCOCC2)CC(=O)N(C)[C@@H](CC(C)C)C(=O)N[C@@H]([C@@H](C)CC)C1=O [PP0750] ([NMeL]I[Gly(N-propargyl)][Sar][NPrPhe(4-CF3)][Sar][hPhe(3-Cl-4-CF3)]P[Ac5c][NMeGly(cPent)][NMeD]-Morpholide; lactam N-11) |  |  |  |  | B (a compound having 3 or more and less than 10 is denoted as B) | C (A compound having a KD ratio of 0.1 or more and less than 3 is denoted as C)
5 |  | 8.49 | C=CC[C@H]1C(=O)N[C@@H]([C@@H](C)CC)C(=O)N(C)CC(=O)N(C)[C@H]2CCCCCN(C2=O)[C@@H](Cc2ccc(C(F)(F)F)cc2)C(=O)N(C)CC(=O)N[C@@H](CCc2cc(F)c(C(F)(F)F)c(F)c2)C(=O)N2C[C@H](OCC)C[C@H]2C(=O)N[C@](C)(CC=C)C(=O)N(C)[C@@H](C2CCCC2)C(=O)N(C)[C@H](C(=O)N2CCOCC2)CC(=O)N1C [PP0878] | B (a compound having 3 or more and less than 10 is denoted as B) | B (a compound having 3 or more and less than 10 is denoted as B) |  |  |  | 
6 | 9.05 |  | CCCN1C(=O)CN(C)C(=O)CN(C)C(=O)[C@H]([C@@H](C)CC)NC(=O)[C@H](CC(C)C)N(C)C(=O)C[C@@H](C(=O)N2CCOCC2)NC(=O)[C@H](C2CCCC2)N(C)C(=O)C2(CCC2)NC(=O)[C@@H]2CCCN2C(=O)[C@H](CCc2ccc(C(F)(F)F)c(Cl)c2)NC(=O)CN(C)C(=O)[C@@H]1Cc1ccc(C(F)(F)F)cc1 [PP0320] ([NMeL]I[Sar][Sar][NPrPhe(4-CF3)][Sar][hPhe(3-Cl-4-CF3)]P[Ac4c][NMeGly(cPent)]D-Morpholide; lactam N-11) | B (a compound having 3 or more and less than 10 is denoted as B) | B (a compound having 3 or more and less than 10 is denoted as B) |  |  |  | 
7 |  | 10.15 | CCO[C@@H]1C[C@H]2C(=O)NC3(CCC3)C(=O)N(C)[C@@H](C3CCCC3)C(=O)N(C)[C@H](C(=O)N(C)C)CC(=O)N(C)[C@@H](CC(C)(C)C)C(=O)N[C@@H]([C@@H](C)CC)C(=O)N(C)CC(=O)N(C)[C@H]3C/C=C\CCN(C3=O)[C@@H](Cc3ccc(C(F)(F)F)cc3)C(=O)N(C)CC(=O)N[C@@H](CCc3cc(F)c(C(F)(F)F)c(F)c3)C(=O)N2C1 [PP1117, (2S,8S,12R,14S,20S,23S,27S,30S,36S,38Z)-20-cyclopentyl-8-[2-[3,5-difluoro-4-(trifluoromethyl)phenyl]ethyl]-27-(2,2-dimethylpropyl)-12-ethoxy-N,N,4,19,22,26,32,35-octamethyl-30-[(1S)-1-methylpropyl]-3,6,9,15,18,21,25,28,31,34,42-undecaoxo-2-[[4-(trifluoromethyl)phenyl]methyl]spiro[1,4,7,10,16,19,22,26,29,32,35-undecazatricyclo[34.5.1.0^10,14]dotetracont-38-ene-17,1′-cyclobutane]-23-carboxamide] | A (a compound having 10 or more and less than 20 is denoted as A) | A (a compound having 10 or more and less than 20 is denoted as A) |  |  |  | 
8 | 8.77 |  | CCCN1C(=O)CN(C)C(=O)[C@@H]2CCN2C(=O)[C@H]([C@@H](C)CC)NC(=O)[C@H](CC(C)C)N(C)C(=O)C[C@@H](C(=O)N2CCOCC2)NC(=O)[C@H](C2CCCC2)N(C)C(=O)C2(CCC2)NC(=O)[C@@H]2C[C@@H](OCC)CN2C(=O)[C@H](CCc2ccc(C(F)(F)F)c(Cl)c2)NC(=O)CN(C)C(=O)[C@@H]1Cc1ccc(C(F)(F)F)cc1 [PP0342] ([NMeL]I[Aze][Sar][NPrPhe(4-CF3)][Sar][hPhe(3-Cl-4-CF3)][Hyp](Et)[Ac4c][NMeGly(cPent)]D-Morpholide; lactam N-11) | B (a compound having 3 or more and less than 10 is denoted as B) | B (a compound having 3 or more and less than 10 is denoted as B) |  |  |  | 
9 | 9.72 |  | CCCN1C(=O)CN(C)C(=O)CN(C)C(=O)[C@H]([C@@H](C)CC)NC(=O)[C@H](CC(F)(F)F)N(C)C(=O)C[C@@H](C(=O)N2CCOCC2)N(C)C(=O)[C@H](C2CCCC2)N(C)C(=O)C2(CCCC2)NC(=O)[C@@H]2CCCN2C(=O)[C@H](CCc2ccc(C(F)(F)F)c(Cl)c2)NC(=O)CN(C)C(=O)[C@@H]1Cc1ccc(C(F)(F)F)cc1 [PP0187] ([NMeAbu(4,4,4-F3)]I[Sar][Sar][NPrPhe(4-CF3)][Sar][hPhe(3-Cl-4-CF3)]P[Ac5c][NMeGly(cPent)][NMeD]-Morpholide; lactam N-11) | B (a compound having 3 or more and less than 10 is denoted as B) | C (A compound having a KD ratio of 0.1 or more and less than 3 is denoted as C) |  |  |  | 
10 |  | 9.28 | CC[C@H](C)[C@@H]1NC(=O)[C@H](COC)N(C)C(=O)C[C@@H](C(=O)N2CCOCC2)N(C)C(=O)[C@H](C2CCCC2)N(C)C(=O)C2(CCC2)NC(=O)[C@@H]2CC(F)(F)CN2C(=O)[C@H](CCc2cc(F)c(C(F)(F)F)c(F)c2)NC(=O)CN(C)C(=O)[C@H](Cc2ccc(C(F)(F)F)cc2)N2CCCCC[C@@H](C2=O)N(C)C(=O)[C@@H]2CCN2C1=O [PP0866] | B (a compound having 3 or more and less than 10 is denoted as B) | B (a compound having 3 or more and less than 10 is denoted as B) |  |  |  | 
11 | 9.11 |  | CCCN1C(=O)[C@@H]2[C@@H](C)CN2C(=O)[C@H](C)N(C)C(=O)[C@H]([C@@H](C)CC)NC(=O)[C@H](CC(C)C)N(C)C(=O)C[C@@H](C(=O)N2CCOCC2)N(C)C(=O)[C@H](C2CCCC2)N(C)C(=O)C2(CCCC2)NC(=O)[C@@H]2CCCN2C(=O)[C@H](CCc2ccc(C(F)(F)F)c(Cl)c2)NC(=O)CN(C)C(=O)[C@@H]1Cc1ccc(C)cc1 [PP0138] ([NMeL]I[NMeA][Aze(3S-Me)][NPrPhe(4-Me)][Sar][hPhe(3-Cl-4-CF3)]P[Ac5c][NMeGly(cPent)][NMeD]-Morpholide; lactam N-11) | C (A compound having a KD ratio of 0.1 or more and less than 3 is denoted as C) | C (A compound having a KD ratio of 0.1 or more and less than 3 is denoted as C) |  |  |  | 
12 | 9.92 |  | CCCC[C@H]1C(=O)N[C@@H]([C@@H](C)CC)C(=O)N(C)CC(=O)N(C)[C@H]2C/C=C\CCN(C2=O)[C@@H](Cc2ccc(C)cc2)C(=O)N(C)CC(=O)N[C@@H](CCc2cc(F)c(C(F)(F)F)c(F)c2)C(=O)N2C[C@H](OCC)C[C@H]2C(=O)NC2(CCC2)C(=O)N(C)[C@@H](C2CCCC2)C(=O)N(C)[C@H](C(=O)N(C)CC)CC(=O)N1C [PP2796] |  |  | A (a compound having 10 or more and less than 20 is denoted as A) | A (a compound having 10 or more and less than 20 is denoted as A) |  | 
